These results are taken from PMC7663979, “Design of Novel 4-Aminobenzofuroxans and Evaluation of Their Antimicrobial and Anticancer Activity” (International Journal of Molecular Sciences, 2020).

Data set [1] deals with Microdochium nivale isolate 1. The data set can be described thus: Fungistatic activity, agar growth medium poison technique, isolate 1. The data set is classed as cell-based. As to conditions: Microdochium nivale, 1 mM in PSA, 20 °C. Here is the method: (§1) Fungistatic activity of the tested compounds was assessed in vitro using agar growth medium poison technique. The target compounds as well as widely used fungicides benzimidazole and carbendazim were dissolved to 10 mM concentration in 20% Tween 20. The obtained solutions were added 1:9 v/v (giving 1 mM-concentrations of the target compounds) to potato-sucrose agar (PSA) at 60 °C, mixed thoroughly and transferred to Petri dishes. For the control variants, PSA was supplemented with 20% Tween 20 (9:1). Fungistatic effect was tested against two isolates of Microdochium nivale causing snow mold disease of winter cereals (rye) from the culture collection of FRC Kazan Scientific Center of RAS. […] The center of each solidified medium was inoculated upside-down with 5-mm diameter mycelial plug cut from the periphery of 10-day-old cultures. The tested dishes were incubated at 20 °C. The percentage growth inhibition was calculated using Abbott’s formula (1):%Inhibition = [(A − B) ÷ A] × 100(1) where ‘A’ is mycelia growth in the control conditions and ‘B’ is mycelia growth in the treatment conditions. The assay was performed at least in triplicate. Linear growth of each colony was determined during 6 days.

The test system of data set [2] is Microdochium nivale isolate 21. The data set can be described thus: Fungistatic activity, agar growth medium poison technique, isolate 21. The format is cell-based. As to conditions: Microdochium nivale, 1 mM in PSA, 20 °C. The protocol: as §1
The next data set concerns M-HeLa. The data set is described as follows: Cytotoxicity assay (Cytell Cell Viability BioApp), M-HeLa. The format is cell-based, human. To be noted: for IC50: Homo sapiens, M-HeLa, mean ± SD, three experiments; for SI M-HeLa: selectivity index = IC50 normal cells (Chang liver) / IC50 cancer cells, n.s. = no selectivity.
For the next data set, the system named is MCF7. The data set is described as follows: Cytotoxicity assay (Cytell Cell Viability BioApp), MCF7. As to conditions: for IC50: Homo sapiens, MCF7, mean ± SD, three experiments; for SI MCF7: selectivity index = IC50 normal cells (Chang liver) / IC50 cancer cells, n.s. = no selectivity. The data set is classed as cell-based, human.
For a further data set, the system named is PANC-1. The data set can be described thus: Cytotoxicity assay (Cytell Cell Viability BioApp), PANC-1. The format is cell-based, human. As to conditions: for IC50: Homo sapiens, PANC-1, mean ± SD, three experiments; for SI PANC-1: selectivity index = IC50 normal cells (Chang liver) / IC50 cancer cells, n.s. = no selectivity.
The test system of the next data set is T98G. The data set is described as follows: cells. To be noted: for IC50: Homo sapiens, T98G, read-out: IC50 T98G; for SI T98G: selectivity index = IC50 normal cells (Chang liver) / IC50 cancer cells, n.s. = no selectivity. The format is cell-based, human.
In a further data set the test system is Chang Liver. The data set can be described thus: Cytotoxicity assay (Cytell Cell Viability BioApp), normal Chang liver cells. The data set is classed as cell-based. To be noted: Homo sapiens, mean ± SD, three experiments, read-out: IC50 Chang Liver (normal cell line).
In data set [3] the test system is M-HeLa cells. The data set can be described thus: Cell apoptosis analysis by flow cytometry (annexin V-Alexa Fluor 647 / propidium iodide). The format is cell-based, human. As to conditions: 24 h. The protocol:
(§2) Cell Culture. M-HeLa cells at 10^6 cells/ well in a final volume of 2 mL were seeded into 6-well plates. After 24 h of incubation, various concentrations of compounds 3c and 3f were added to wells.
Cell Apoptosis Analysis. The cells were harvested at 2000 rpm for 5 min and, then, washed twice with ice-cold PBS, followed by resuspension in binding buffer 100 μL. Next, the samples were incubated with 0.35 μL of annexin V-Alexa Fluor 647 and 0.1 μL of propidium iodide for 40 min at room temperature in the dark. Finally, the cells were analyzed by flow cytometry (Guava easyCyte, MERCK, Kenilworth, NJ, USA). The experiments were repeated three times.

Data set [4] deals with M-HeLa cells. The data set is described as follows: Cell cycle analysis, propidium iodide, flow cytometry. The format is cell-based, human. As to conditions: 24 h, control cells 34.28%. Here is the method:
as §2
The DNA content and cell-cycle distribution after […] were estimated by flow cytometry. Cell seeding, drug treatment and ethanol fixation were similar to cell proliferation assay. After washing with PBS, […] were suspended in 150 μL of PBS, then 0.5 mL phosphate-citrate buffer (0.05 M, pH = 4.0) was added and the suspension was incubated at room temperature for 5 min to facilitate the extraction of low molecular weight DNA. Following centrifugation the cells were resuspended in 150 μL DNA staining solution (20 μg/mL propidium iodide, 200 μg/mL […], and 0.1% Triton X-100) and incubated in the CO2 incubator (37 °C for 30 min). Cell cycle distribution was determined by fluorescence-activated cell sorting analysis of propidium iodide-stained ethanol-fixed cells using a Guava EasyCyte (Guava easyCyte, MERCK, Kenilworth, NJ, USA).
A general note: Flow cytometry measures light scatter and fluorescence of single cells or particles in a stream.

The test system of data set [5] is Vibrio aquamarinus DSM 26054. Details: method as in PMID 31450696. To be noted: control = 100%, data first published in ref 40, cited from earlier work.
Data set [6] has as its system M-HeLa cells. The data set can be described thus: Mitochondrial membrane potential, JC-10, flow cytometry. The data set is classed as cell-based, human. As to conditions: ≥ IC 50 concentrations. The protocol: as §2
The cells were harvested at 2000 rpm for 5 min and, then, washed twice with ice-cold PBS, followed by resuspension in JC-10 (10 µg/mL) and incubation at 37 °C for 10 min. After the cells were rinsed three times and suspended in PBS, the JC-10 fluorescence was observed by flow cytometry.

“And” between values parts separate entries of the source, which are not always exact repeats. Equal values may be shown once. Read-outs that look alike come from different tables or passages of the source.

For orientation: inhibition means the change of the read-out against control, counted positive when it falls. A high value points to a strong effect. As usually defined, the IC50 is the concentration that inhibits the measured activity by half. As to `O=[N+]([O-])c1c(Cl)cc2c(no[n+]2[O-])c1Nc1ccc(Br)cc1` [Compound 3c, 4-((4-bromophenyl)amino)-6-chloro-5-nitrobenzofuroxan], the inhibition at 1000 µM in data set [1] (fifth day of incubation) is more than 40%; in data set [1] (sixth day of incubation), more than 25%; in data set [2] (fifth day of incubation) it was more than 40%; in data set [2] (sixth day of incubation) it was more than 25%. Further, the 50% inhibitory concentration (IC50) amounted to 4.8 ± 0.4 µM with M-HeLa; 3.7 ± 0.2 µM in the data set on MCF7; 59.2 ± 4.6 µM in the data set on PANC-1; 20.4 ± 1.7 µM in the data set on T98G; 61.3 ± 5.1 µM in the data set with Chang Liver. The “SI M-HeLa” value in the data set with M-HeLa stood at 12.8. In addition, the “SI MCF7” value with MCF7 stood at 16.6. Besides, the “SI PANC-1” value in the data set with PANC-1 came out at 1.0. Further, the “SI T98G” value in the data set with T98G came out at 3. Besides, the “D—dead cells” value in the data set on M-HeLa cells [3] (5 μM) is recorded as 3.92%; with M-HeLa cells [3] (10 μM), 6.16%. In addition, the “Ea—early apoptotic cells” value with M-HeLa cells [3] (5 μM) is on record as 6.67%; in the data set on M-HeLa cells [3] (10 μM), 17.33%. For the same compound, the “La—late apoptotic cells” value is given as 8.63% with M-HeLa cells [3] (5 μM) and 15.69% in the data set on M-HeLa cells [3] (10 μM). Also, the “L—living cells” value turned out to be 80.78% with M-HeLa cells [3] (5 μM) and 60.82% with M-HeLa cells [3] (10 μM). For the same compound, the “cells in G0/G1 phase (G1)” value with M-HeLa cells [4] (5 μM) is 62.9% and 62.91%; in the data set with M-HeLa cells [4] (10 μM), 70.1% and 70.06%.

As for `O=[N+]([O-])c1c(Cl)cc2c(no[n+]2[O-])c1Nc1cccc(O)c1` [Compound 3f, 6-chloro-4-((3-hydroxyphenyl)amino)-5-nitrobenzofuroxan], the IC50 in the data set on M-HeLa was 16 ± 1.3 µM; in the data set with MCF7, 8.1 ± 0.7 µM; in the data set on PANC-1 it was more than 100 µM; in the data set on T98G, 59.8 ± 4.8 µM; with Chang Liver it was 64.4 ± 5.7 µM. The “SI M-HeLa” value in the data set with M-HeLa stood at 4.0. Also, in the data set with MCF7, the “SI MCF7” value came to 8.0. The “SI PANC-1” value in the data set on PANC-1 is listed as “n.s”. Also, the “SI T98G” value with T98G came to 1.1. Besides, the figures for the “D—dead cells” value in the data set with M-HeLa cells [3] (10 μM) and in the data set with M-HeLa cells [3] (15 μM) were 5.03% and 8.16%, respectively. The “Ea—early apoptotic cells” value turned out to be 14.46% with M-HeLa cells [3] (10 μM) and 17.59% with M-HeLa cells [3] (15 μM). The “La—late apoptotic cells” value was 12.79% with M-HeLa cells [3] (10 μM) and 16.83% in the data set with M-HeLa cells [3] (15 μM). The figures for the “L—living cells” value with M-HeLa cells [3] (10 μM) and with M-HeLa cells [3] (15 μM) were 67.72% and 57.42%, respectively. Moreover, the “cells in G0/G1 phase (G1)” value in the data set on M-HeLa cells [4] (15 μM) stood at 66.8%. In addition, the “Biofilm Formation, %” value in data set [5] (compound concentration 1 × 10^−4 M) is 98.97%; in data set [5] (compound concentration 1 × 10^−5 M), 96.57%; in data set [5] (compound concentration 1 × 10^−6 M), 43.56% and 43.56 * %; in data set [5] (compound concentration 1 × 10^−7 M), 11.34% and 11.34 * %; in data set [5] (compound concentration 1 × 10^−8 M) it was 9.31% and 9.31 * %; in data set [5] (compound concentration 1 × 10^−9 M), 66.58%.

For the compound `O=[N+]([O-])c1c(Cl)cc2c(no[n+]2[O-])c1NCCCN1CCOCC1` [Compound 5c, 6-chloro-4-((3-morpholinopropyl)amino)-5-nitrobenzofuroxan], in the data set on M-HeLa, the concentration for half-maximal inhibition (IC50) is 49.3 ± 3.9 µM and the “SI M-HeLa” value was more than 2. In the data set on MCF7, the half-inhibitory concentration (IC50) is more than 100 µM and the “SI MCF7” value is given as “n.s”. In the data set on PANC-1, the IC50 is 38 ± 2.9 µM and the “SI PANC-1” value was more than 2.6. In the data set on T98G, the IC50 is more than 100 µM and the “SI T98G” value was “n.s”. In addition, in the data set on Chang Liver, the IC50 was more than 100 µM. Further, the “intensity of red fluorescence (JC-10) compared to the control” value with M-HeLa cells [6] is “did not change significantly”.

With `O=[N+]([O-])c1c(Cl)cc2c(no[n+]2[O-])c1N1CCCC1` [Compound 5g, 6-chloro-5-nitro-4-(pyrrolidin-1-yl)benzofuroxan], in the data set on M-HeLa, the IC50 was more than 100 µM and the “SI M-HeLa” value was “n.s”. For the same compound, in the data set on MCF7, the concentration for half-maximal inhibition (IC50) is more than 100 µM and the “SI MCF7” value was “n.s”. Also, in the data set on PANC-1, the 50% inhibitory concentration (IC50) was more than 100 µM and the “SI PANC-1” value was “n.s”. In the data set with T98G, the half-inhibitory concentration (IC50) is more than 100 µM and the “SI T98G” value is recorded as “n.s”. Also, in the data set on Chang Liver, the IC50 is more than 100 µM. Besides, in the data set on M-HeLa cells [6], the “intensity of red fluorescence (JC-10) compared to the control” value is on record as “did not change significantly”.

A word on the melting point: it is the temperature of the solid-liquid transition. In turn, `CC(C)c1ccc(Nc2c([N+](=O)[O-])cc([N+](=O)[O-])c3no[n+]([O-])c23)cc1` [Compound 6, 7-(4-isopropylphenylamino)-4,6-dinitrobenzofuroxan] returned a melting point of 110 to 111 °C.
